Values quoted from earlier work in patent US8877779B2 (priority 2007, dated 2014).

Settings: Proc. Natl. Acad. Sci. U.S.A. 97: 4938-4943, 2000

For `O=C1NCN(c2ccccc2)C12CCN([C@@H]1CC[C@H]3CCCc4cccc1c43)CC2` [Ro64-6198], the “bioavailability (BA)” value is listed as 4%.
